Among the data in ChEMBL document CHEMBL3600350, “Peptide HIV fusion inhibitors: modifications and conjugations” (Medchemcomm, 2014) are IC50 values, retold here.

The test system of experiment [1] is Human immunodeficiency virus 1. Description: Antiviral activity against HIV-1 HXB2 assessed as inhibition of viral fusion with human TZM-bl cells after 6 hrs by luciferase reporter gene assay. It counts as functional, organism-based. Particulars: Human immunodeficiency virus 1, HXB2, TZM-bl.
Experiment [2] in a line: Inhibition of HIV-1 HXBc2 env-mediated cell fusion between viral infected human Jurkat cells and non infected human Jurkat E6-1 cells after 6 hrs by DiI/DiD probe-based flow cytometric analysis. The settings on record: Human immunodeficiency virus 1, HXBc2, Jurkat. On the technique in general: A flow cytometer gives signals particle by particle.
The test system of experiment [3] is Human immunodeficiency virus 1. Description: Antiviral activity against HIV-1 HXB2 assessed as inhibition of viral infection in human TZM-bl cells after 18 hrs by steady-glo luciferase reporter gene assay. It counts as functional, organism-based. The settings on record: Human immunodeficiency virus 1, HXB2, TZM-bl.

Numbered stars: 1 amine (or outer) side, 2 acyl side, 3 side chain; on linkers, the order of the positions; unused ones are H or OH. Square brackets hold non-standard residues; d marks the D form. Peptide text beside a SMILES is read from it. X1 = CCCCCCCCCCCCCCCC(=O)NC(=O)CC[C@H](N[*:1])C(=O)[*:2] Bounds are passed on as bounds.

Usually IC50 stands for the midpoint of a concentration-inhibition curve. In the case of H-YTSLIHSLIEESQNQQEKNEQELLE-OH, the IC50 in experiment [1] was 2.86 µM.
With `CCCCCCCCCCCCCCCC(=O)NC(=O)CC[C@H](N)C(=O)N[C@@H](CC(C)C)C(=O)N[C@@H](CC(C)C)C(=O)N[C@@H](CO)C(=O)NCC(=O)N[C@H](C(=O)N[C@H](C(=O)N[C@@H](CCC(N)=O)C(=O)N[C@@H](CCC(N)=O)C(=O)N[C@@H](CCC(N)=O)C(=O)N[C@@H](CC(N)=O)C(=O)N[C@@H](CC(N)=O)C(=O)N[C@@H](CC(C)C)C(=O)N[C@@H](CC(C)C)C(=O)N[C@@H](CCCNC(=N)N)C(=O)N[C@@H](C)C(=O)N[C@H](C(=O)N[C@@H](CCC(=O)O)C(=O)N[C@@H](C)C(=O)N[C@@H](CCC(N)=O)C(=O)N[C@@H](CCC(N)=O)C(=O)N[C@@H](Cc1c[nH]cn1)C(=O)N[C@@H](CC(C)C)C(=O)N[C@@H](CC(C)C)C(=O)N[C@@H](CCC(N)=O)C(=O)O)[C@@H](C)CC)C(C)C)[C@@H](C)CC` (H-[X1]LLSGIVQQQNNLLRAIEAQQHLLQ-OH), the IC50 in experiment [2] is 0.01 µM.
For `CC[C@H](C)[C@H](NC(=O)[C@H](CC(C)C)NC(=O)[C@H](CO)NC(=O)[C@H](Cc1c[nH]cn1)NC(=O)[C@@H](NC(=O)[C@H](CC(C)C)NC(=O)[C@H](CO)NC(=O)[C@@H](NC(=O)[C@@H](N)Cc1ccc(O)cc1)[C@H](C)O)[C@@H](C)CC)C(=O)N[C@@H](CCC(=O)O)C(=O)N[C@@H](CCC(=O)O)C(=O)N[C@@H](CO)C(=O)N[C@@H](CCC(N)=O)C(=O)N[C@@H](CC(N)=O)C(=O)N[C@@H](CCC(N)=O)C(=O)N[C@@H](CCC(N)=O)C(=O)N[C@@H](CCC(=O)O)C(=O)N[C@@H](CCCCN)C(=O)N[C@@H](CC(N)=O)C(=O)N[C@@H](CCCCN)C(=O)O`, the IC50 in experiment [3] was above 4 µM.
In the case of `CCCCCCCCCCCCCCCC(O)C(CO)NCNC(=O)[C@@H](CCCCN)NC(=O)[C@H](CC(C)C)NC(=O)[C@@H](NC(=O)[C@H](CCCNC(=N)N)NC(=O)[C@H](C)NC(=O)[C@H](CCC(N)=O)NC(=O)[C@H](CC(C)C)NC(=O)[C@H](CCC(N)=O)NC(=O)[C@H](CCCCN)NC(=O)[C@@H](NC(=O)CNC(=O)[C@H](Cc1c[nH]c2ccccc12)NC(=O)[C@@H](NC(=O)[C@@H](NC(=O)[C@H](CC(C)C)NC(=O)[C@H](CCC(N)=O)NC(=O)[C@H](CC(C)C)NC(=O)[C@@H](N)CC(C)C)[C@H](C)O)C(C)C)[C@@H](C)CC)[C@@H](C)CC` (some centres undefined), the IC50 in experiment [3] came to 0.287 µM.
For the molecule H-LLSGIVQQQNNLLRAIEAQQHLLQ-OH, half-maximal inhibition in experiment [2] (IC50) was put at 0.338 µM.
As to `CCCCCCCCCCCCCCCC(O)C(CO)NC(=O)N[C@@H](CC(C)C)C(=O)N[C@@H](CC(C)C)C(=O)N[C@@H](CCC(N)=O)C(=O)N[C@@H](CC(C)C)C(=O)N[C@H](C(=O)N[C@H](C(=O)N[C@@H](Cc1c[nH]c2ccccc12)C(=O)NCC(=O)N[C@H](C(=O)N[C@@H](CCCCN)C(=O)N[C@@H](CCC(N)=O)C(=O)N[C@@H](CC(C)C)C(=O)N[C@@H](CCC(N)=O)C(=O)N[C@@H](C)C(=O)N[C@@H](CCCNC(=N)N)C(=O)N[C@H](C(=O)N[C@@H](CC(C)C)C(=O)O)[C@@H](C)CC)[C@@H](C)CC)C(C)C)[C@H](C)O` (some centres undefined), in experiment [3], the IC50 came out at 0.121 µM.
The same measure, in the same setting: under `CCCCCCCCCCCCCCCC(O)C(CO)NC(=O)NC(=O)[C@H](CCCCN)NC(=O)[C@H](CC(N)=O)NC(=O)[C@H](CCCCN)NC(=O)[C@H](CCC(=O)O)NC(=O)[C@H](CCC(N)=O)NC(=O)[C@H](CCC(N)=O)NC(=O)[C@H](CC(N)=O)NC(=O)[C@H](CCC(N)=O)NC(=O)[C@H](CO)NC(=O)[C@H](CCC(=O)O)NC(=O)[C@H](CCC(=O)O)NC(=O)[C@@H](NC(=O)[C@H](CC(C)C)NC(=O)[C@H](CO)NC(=O)[C@H](Cc1c[nH]cn1)NC(=O)[C@@H](NC(=O)[C@H](CC(C)C)NC(=O)[C@H](CO)NC(=O)[C@@H](NC(=O)[C@@H](N)Cc1ccc(O)cc1)[C@H](C)O)[C@@H](C)CC)[C@@H](C)CC` (some centres undefined) stands 0.35 µM.
In the case of `CC[C@H](C)[C@H](NC(=O)CNC(=O)[C@H](Cc1c[nH]c2ccccc12)NC(=O)[C@@H](NC(=O)[C@@H](NC(=O)[C@H](CC(C)C)NC(=O)[C@H](CCC(N)=O)NC(=O)[C@H](CC(C)C)NC(=O)[C@@H](N)CC(C)C)[C@H](C)O)C(C)C)C(=O)N[C@@H](CCCCN)C(=O)N[C@@H](CCC(N)=O)C(=O)N[C@@H](CC(C)C)C(=O)N[C@@H](CCC(N)=O)C(=O)N[C@@H](C)C(=O)N[C@@H](CCCNC(=N)N)C(=O)N[C@H](C(=O)N[C@@H](CC(C)C)C(=O)O)[C@@H](C)CC`, the IC50 in experiment [3] was above 4 µM.
As for `CCCCCCCCCCCCCCCC(=O)[C@H](CCCCN)NC(=O)[C@H](CCC(=O)O)NC(=O)[C@H](CC(C)C)NC(=O)[C@H](CC(C)C)NC(=O)[C@H](CCC(=O)O)NC(=O)[C@H](CCC(N)=O)NC(=O)[C@H](CCC(=O)O)NC(=O)[C@H](CC(N)=O)NC(=O)[C@H](CCCCN)NC(=O)[C@H](CCC(=O)O)NC(=O)[C@H](CCC(N)=O)NC(=O)[C@H](CCC(N)=O)NC(=O)[C@H](CC(N)=O)NC(=O)[C@H](CCC(N)=O)NC(=O)[C@H](CO)NC(=O)[C@H](CCC(=O)O)NC(=O)[C@H](CCC(=O)O)NC(=O)[C@@H](NC(=O)[C@H](CC(C)C)NC(=O)[C@H](CO)NC(=O)[C@H](Cc1c[nH]cn1)NC(=O)[C@@H](NC(=O)[C@H](CC(C)C)NC(=O)[C@H](CO)NC(=O)[C@@H](NC(=O)[C@@H](N)Cc1ccc(O)cc1)[C@H](C)O)[C@@H](C)CC)[C@@H](C)CC`, the IC50 in experiment [1] came out at 0.0013 µM.
